Results: patent US6627611B2, “C-glycosides and preparation of thereof as antidiabetic agents” (Kotobuki Pharmaceutical Co Ltd, priority 2000, dated 2003)

System: not given
Assay: not given
Details: not given

Row | melting point [°C] | SMILES
1 | 89 to 90 | CCOc1cc(OCC)c(C2OC(CO)C(O)C(O)C2O)cc1C(=O)CCc1ccc2occc2c1 (stereo not shown) [Compound 24]
2 | 236 to 239 | COc1cc(O)c(C(=O)/C=C/c2ccc3ccccc3c2)cc1C1OC(CO)C(O)C(O)C1O (stereo not shown) [Compound 13]
3 | 71 to 73 | COc1cc(O)c(C(=O)/C=C/c2ccc3occc3c2)cc1C1OC(COC(=O)CCC(=O)O)C(O)C(O)C1O (stereo not shown) [Compound 42]
4 | 80 to 83 | COc1cc(C)cc(CC2OC(CO)C(O)C(O)C2O)c1C(=O)/C=C/c1ccc2occc2c1 (stereo not shown) [Compound 55]
5 | 118 to 119 | COc1cc(C)c(C(=O)CCc2ccc3occc3c2)cc1C1OC(CO)C(O)C(O)C1O (stereo not shown) [Compound 27]
6 | 113 to 114 | COc1cc(O)c(C(=O)CCc2ccc3occc3c2)cc1C1OC(COC(=O)CCC(=O)O)C(O)C(O)C1O (stereo not shown) [Compound 47]
7 | 183 to 185 | COc1cc(O)c(C(=O)/C=C/c2ccncc2)cc1C1OC(CO)C(O)C(O)C1O (stereo not shown) [Compound 12]
8 | 226 to 228 | COc1cc(OC)c(C2OC(CO)C(O)C(O)C2O)cc1C(=O)/C=C/c1ccc2occc2c1 (stereo not shown) [Compound 2]
9 | 227 to 228 | O=C(CCc1ccc(O)cc1)c1c(O)cc(O)cc1CC1OC(CO)C(O)C(O)C1O [Compound 54, 1-[2,4-Dihydroxy-6-{(β-D-glicopyranosyl)methyl}phenyl]-3-(4-hydroxyphenyl)propan-1-one]
10 | 115 to 117 | COc1cc(O)c(C(=O)/C=C/c2ccc3occc3c2)cc1C1OC(C(=O)[O-])C(O)C(O)C1O.[Na+] [Compound 43, 3-(Benzo[b]furan-5-yl)-3′-(6-carboxysodium salt-β-D-glucopyranosyl)4′-methoxy-6′-hydroxy-acrylophenone]
11 | 177 to 179 | COc1cc(O)c(C(=O)/C=C/c2ccc3occc3c2)cc1C1OC(COS(=O)(=O)O)C(O)C(O)C1O [Compound 44, 3-(Benzo[b]furan-5-yl)-3′-(6-sulfonic acid-β-D-glucopyranosyl)-4′-methoxy-6′-hydroxyacrylophenone]
12 | 181 to 183 | COc1cc(O)c(C(=O)/C=C/c2ccc(C)cc2)cc1C1OC(CO)C(O)C(O)C1O (stereo not shown) [Compound 10]
13 | 216 to 217 | COc1cc(O)c(C(=O)CCc2cc3ccccc3o2)cc1C1OC(CO)C(O)C(O)C1O (stereo not shown) [Compound 31]
14 | 103 to 105 | Cc1cc(O)c(C(=O)/C=C/c2ccc3occc3c2)c(CC2OC(CO)C(O)C(O)C2O)c1 [Compound 51, 3-(Benzo[b]furan-5-yl)-1-[6-hydroxy-4-methyl-2-{(β-D-glucopyranos-1-yl)methyl}]acrylophenone]
15 | 118 to 120 | COc1cc(C)cc(CC2OC(CO)C(O)C(O)C2O)c1C(=O)/C=C/c1ccc2occc2c1 (stereo not shown) [Compound 57]
16 | 217 to 220 | COc1cc(O)c(C(=O)/C=C/c2ccc3sccc3c2)cc1C1OC(CO)C(O)C(O)C1O (stereo not shown) [Compound 18]
17 | 228 to 229 | Cc1cc(O)c(C(=O)/C=C/c2ccc3occc3c2)cc1C1OC(CO)C(O)C(O)C1O (stereo not shown) [Compound 8]
18 | 66 to 71 | COc1cc(O)c(C(=O)CCc2ccc3[nH]ccc3c2)cc1C1OC(CO)C(O)C(O)C1O (stereo not shown) [Compound 30]
19 | 112 to 113 | COc1cc(OC)c(C2OC(CO)C(O)C(O)C2O)cc1C(=O)CCc1ccc2occc2c1 (stereo not shown) [Compound 23]
20 | 226 to 228 | COc1cc(O)c(C(=O)CCc2ccc3occc3c2)cc1C1OC(CO)C(O)C(O)C1O (stereo not shown) [Compound 22]
21 | 137 to 138 | COc1cc(C)c(C(=O)/C=C/c2ccc3occc3c2)cc1C1OC(CO)C(O)C(O)C1O (stereo not shown) [Compound 9]
22 | 199 to 201 | COC(=O)OCC1OC(Cc2cc(O)cc(O)c2C(=O)CCc2ccc(O)cc2)C(O)C(O)C1O (stereo not shown) [Compound 58]

Row | melting point [°C] | SMILES
23 | 175 to 176 | CCOc1cc(O)c(C(=O)CCc2ccc3occc3c2)cc1C1OC(CO)C(O)C(O)C1O (stereo not shown) [Compound 25]
24 | 194 to 196 | COc1cc(O)c(C(=O)/C=C/c2ccc3[nH]ccc3c2)cc1C1OC(CO)C(O)C(O)C1O (stereo not shown) [Compound 17]
25 | 58 to 60 | COC(=O)OCC1OC(Cc2cc(C)cc(O)c2C(=O)CCc2ccc3occc3c2)C(O)C(O)C1O [Compound 53, 3-Benzo [b]furan-5-yl-1-(6-hydroxy-4-methyl-2-{[6-methoxycarbonyl-β-D-glucopyranos-1-yl]methyl})propiophenone]
26 | 120 to 121 | CCOc1cc(OCC)c(C2OC(CO)C(O)C(O)C2O)cc1C(=O)/C=C/c1ccc2occc2c1 (stereo not shown) [Compound 6]
27 | 256 to 257 | COc1cc(O)c(C(=O)/C=C/c2cc3ccccc3o2)cc1C1OC(CO)C(O)C(O)C1O (stereo not shown) [Compound 20]
28 | 245 to 248 | COc1cc(O)c(C(=O)/C=C/c2ccc3c(c2)CCC3)cc1C1OC(CO)C(O)C(O)C1O (stereo not shown) [Compound 15]
29 | 262 | COc1cc(O)c(C(=O)CCc2ccc3occc3c2)cc1C1OC(COC(=O)CCC(=O)[O-])C(O)C(O)C1O.[Na+] (stereo not shown) [Compound 48]
30 | > 250 | COc1cc(O)c(C(=O)/C=C/c2ccc3occc3c2)cc1[C@@H]1O[C@H](CO)[C@@H](O)[C@H](O)[C@H]1O [Compound 3, 3-(Benzo[b]furan-5-yl)-3′-β-D-glucopyranosyl-6′-hydroxy-4′-methoxyacrylophenone]
31 | 85 to 87 | Cc1cc(O)c(C(=O)CCc2ccc3occc3c2)c(CC2OC(CO)C(O)C(O)C2O)c1 [Compound 52, 3-(Benzo[b]furan-5-yl)-1-[6-hydroxy-4-methyl-2-{(β-D-glucopyranos-1-yl)methyl}]propiophenone]
32 | 198 to 199 | COc1cc(O)c(C(=O)/C=C/c2ccc3occc3c2)c(OC)c1C1OC(CO)C(O)C(O)C1O (stereo not shown) [Compound 16]
33 | 131 to 132 | COc1cc(O)c(C(=O)CCc2ccc3occc3c2)c(OC)c1C1OC(CO)C(O)C(O)C1O (stereo not shown) [Compound 29]
34 | 195 to 196 | COC(=O)OC[C@H]1O[C@@H](c2cc(C(=O)/C=C/c3ccc4occc4c3)c(O)cc2OC)[C@H](O)[C@@H](O)[C@@H]1O [Compound 4, 3-(Benzo[b]furan-5-yl)-3′-(6-O-methoxycarbonyl-β-D-glucopyranosyl)-6′-hydroxy-4′-methoxy-acrylophenone]
35 | 226 to 228 | COc1cc(O)c(C(=O)/C=C/c2ccnc3ccccc23)cc1C1OC(CO)C(O)C(O)C1O (stereo not shown) [Compound 14]
36 | 189 to 190 | CCOc1cc(O)c(C(=O)/C=C/c2ccc3occc3c2)cc1C1OC(CO)C(O)C(O)C1O (stereo not shown) [Compound 7]
37 | 120 to 121 | COC(=O)OCC1OC(c2cc(C(=O)CCc3ccc4occc4c3)c(O)cc2OC)C(O)C(O)C1O [Compound 5, 3-(Benzo[b]furan-5-yl)-3′-(6-O-methoxycarbonyl-β-D-glucopyranosyl)-6′-hydroxy-4′-methoxy-propiopenone]
38 | 276 to 279 | COc1cc(O)c(C(=O)/C=C/c2ccc3c(c2)CCO3)cc1C1OC(CO)C(O)C(O)C1O (stereo not shown) [Compound 19]
39 | 135 to 136 | COc1cc(O)c(C(=O)/C=C/c2ccc3occc3c2)c(CC2OC(CO)C(O)C(O)C2O)c1 [Compound 1, 3-(Benzo[b]furan-5-yl)-1-(2′-β-D-glucopyranosylmethyl-6′-hydroxy-4′-methoxy)acrylophenone]
40 | 103 to 105 | COc1cc(O)c(C(=O)CCc2ccc3occc3c2)c(C[C@@H]2O[C@H](CO)[C@@H](O)[C@H](O)[C@H]2O)c1 [Compound 21, 3-(Benzo[b]furan-5-yl)-2′-β-D-glucopyranosylmethyl-6′-hydroxy-4′-methoxypropiophenone]
41 | 239 to 242 | COc1cc(O)c(C(=O)/C=C/c2ccsc2)cc1C1OC(CO)C(O)C(O)C1O (stereo not shown) [Compound 11]
42 | 191 to 192 | Cc1cc(O)c(C(=O)CCc2ccc3occc3c2)cc1C1OC(CO)C(O)C(O)C1O (stereo not shown) [Compound 26]
43 | 194 to 196 | COc1cc(O)c(C(=O)CCc2ccc3c(c2)CCC3)cc1C1OC(CO)C(O)C(O)C1O (stereo not shown) [Compound 28]

System: male SD rats
Assay: Measurement of urinary glucose excretion in rats
Assay type: in vivo, rat
Details: 10 mg/kg i.p. administered twice at an 8 hr interval, urine collected for 24 hr after first administration
Procedure: The pharmacological test of urinary glucose excretion in rat is described that follow.
Measurement of Urinary Glucose Excretion in Rats
20 mg of test compounds were dissolved in 10 mL saline containing 20% dimethylsulufoxide.
Test compound (10 mg/5 mL/kg, i.p.) was administered twice an 8 hr interval to male SD rats (6 weeks old, 3 animals/group). An equal volume of vehicle was given to the control group. Urine was collected for 24 hr after first administration in metabolic cages.
The urine was centrifuged and urine volume was measured. Glucose concentration (mg/dl) was assayed using Glucose CII test Wako (Wako Pure Chemicals, Japan). The amounts of glucose excretion during 24 hr was calculated from the following equation.
Glucose secretion (mg/24 hr)=(A×B)/100
(A; the urine volume, B; the glucose concentration)

Row | SMILES | Urinary glucose excretion (mg/24 hr)
44 | COc1cc(O)c(C(=O)CCc2ccc3occc3c2)cc1C1OC(CO)C(O)C(O)C1O (stereo not shown) [Compound 22] | 124
45 | CCOc1cc(OCC)c(C2OC(CO)C(O)C(O)C2O)cc1C(=O)/C=C/c1ccc2occc2c1 (stereo not shown) [Compound 6] | 8.9
46 | COc1cc(O)c(C(=O)/C=C/c2ccc3occc3c2)cc1[C@@H]1O[C@H](CO)[C@@H](O)[C@H](O)[C@H]1O [Compound 3, 3-(Benzo[b]furan-5-yl)-3′-β-D-glucopyranosyl-6′-hydroxy-4′-methoxyacrylophenone] | 241
47 | COC(=O)OC[C@H]1O[C@@H](c2cc(C(=O)/C=C/c3ccc4occc4c3)c(O)cc2OC)[C@H](O)[C@@H](O)[C@@H]1O [Compound 4, 3-(Benzo[b]furan-5-yl)-3′-(6-O-methoxycarbonyl-β-D-glucopyranosyl)-6′-hydroxy-4′-methoxy-acrylophenone] | 289
48 | COC(=O)OCC1OC(c2cc(C(=O)CCc3ccc4occc4c3)c(O)cc2OC)C(O)C(O)C1O [Compound 5, 3-(Benzo[b]furan-5-yl)-3′-(6-O-methoxycarbonyl-β-D-glucopyranosyl)-6′-hydroxy-4′-methoxy-propiopenone] | 228
49 | COc1cc(O)c(C(=O)/C=C/c2ccc3occc3c2)c(CC2OC(CO)C(O)C(O)C2O)c1 [Compound 1, 3-(Benzo[b]furan-5-yl)-1-(2′-β-D-glucopyranosylmethyl-6′-hydroxy-4′-methoxy)acrylophenone] | 4.1
